# Counter-ions that a name gives are not always drawn. Like-named read-outs stand apart in the source and are kept apart here.
# Assays:
# [1] = molecular target: T1, GST fusion human ERK2 protein (Homo sapiens, UniProt P28482); test: ERK2 enzyme assay (2); format: biochemical; conditions: read-out: ERK2 enzyme inhibitory activity (2)
# T1 construct: purchased Carna Biosciences, Inc; host or cells: E. coli expression system
# Method in brief: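 GST-tagged human ERK2 expressed in E. coli (1.25 nmol/L) was preincubated with compound for 15 min at room temperature in pH 7.5 Hepes buffer with MgCl2, DTT and Brij35. Reaction with FL-Peptide 8 (final 4.25 μmol/L) and ATP (final 1 mmol/L) ran 120 min at 25 °C; EDTA stopped it, and phosphorylated peptide was quantified by mobility-shift separation to derive IC50.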
# human PI3Kα protein = molecular target: T2, human PI3Kα protein (Homo sapiens, UniProt P42336); test: PI3Kα enzyme assay (ADP-Glo); format: biochemical; conditions: read-out: PI3Kα enzyme inhibitory activity
# T2 construct: purchased Carna Biosciences, Inc; host or cells: baculovirus expression system
# Method in brief: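 Biotinylated human PI3Kα (baculovirus-expressed, 4.5 nmol/L) pre-incubated 15 min with compound in Tris-HCl pH 7.5, MgCl2, BSA; reaction 60 min at 25° C with 50 μmol/L PIP2 and 100 μmol/L ATP final. ADP quantified by ADP-Glo luminescence; IC50 calculated.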
# T2 sequence (P42336 whole entry): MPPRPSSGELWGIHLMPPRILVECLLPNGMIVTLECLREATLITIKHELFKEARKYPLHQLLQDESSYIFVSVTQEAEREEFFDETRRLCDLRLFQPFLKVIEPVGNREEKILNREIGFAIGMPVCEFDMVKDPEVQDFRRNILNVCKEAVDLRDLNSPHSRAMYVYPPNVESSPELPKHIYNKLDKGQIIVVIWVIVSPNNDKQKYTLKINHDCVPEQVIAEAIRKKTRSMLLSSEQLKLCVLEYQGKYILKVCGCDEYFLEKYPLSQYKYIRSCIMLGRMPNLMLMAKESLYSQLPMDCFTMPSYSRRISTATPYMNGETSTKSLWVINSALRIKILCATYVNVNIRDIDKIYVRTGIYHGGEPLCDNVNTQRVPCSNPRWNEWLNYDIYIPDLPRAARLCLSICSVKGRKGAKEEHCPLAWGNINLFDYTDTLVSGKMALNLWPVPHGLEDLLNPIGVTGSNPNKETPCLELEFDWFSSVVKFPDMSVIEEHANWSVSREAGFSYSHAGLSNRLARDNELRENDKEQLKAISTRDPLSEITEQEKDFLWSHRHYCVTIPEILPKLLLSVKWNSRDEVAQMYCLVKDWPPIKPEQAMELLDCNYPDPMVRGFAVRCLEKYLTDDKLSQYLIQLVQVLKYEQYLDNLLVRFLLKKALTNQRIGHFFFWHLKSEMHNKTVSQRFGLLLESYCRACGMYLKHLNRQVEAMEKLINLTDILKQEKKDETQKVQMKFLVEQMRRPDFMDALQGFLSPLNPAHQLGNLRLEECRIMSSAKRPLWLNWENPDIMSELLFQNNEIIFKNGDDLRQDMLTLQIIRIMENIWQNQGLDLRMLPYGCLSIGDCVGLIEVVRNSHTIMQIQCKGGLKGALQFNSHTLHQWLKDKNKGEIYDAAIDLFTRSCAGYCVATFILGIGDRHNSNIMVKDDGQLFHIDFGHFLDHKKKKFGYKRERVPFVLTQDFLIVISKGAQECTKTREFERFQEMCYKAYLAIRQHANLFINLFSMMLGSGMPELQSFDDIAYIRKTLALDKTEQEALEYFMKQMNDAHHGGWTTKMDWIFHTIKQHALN
# T2 sequence (P27986 whole entry partner): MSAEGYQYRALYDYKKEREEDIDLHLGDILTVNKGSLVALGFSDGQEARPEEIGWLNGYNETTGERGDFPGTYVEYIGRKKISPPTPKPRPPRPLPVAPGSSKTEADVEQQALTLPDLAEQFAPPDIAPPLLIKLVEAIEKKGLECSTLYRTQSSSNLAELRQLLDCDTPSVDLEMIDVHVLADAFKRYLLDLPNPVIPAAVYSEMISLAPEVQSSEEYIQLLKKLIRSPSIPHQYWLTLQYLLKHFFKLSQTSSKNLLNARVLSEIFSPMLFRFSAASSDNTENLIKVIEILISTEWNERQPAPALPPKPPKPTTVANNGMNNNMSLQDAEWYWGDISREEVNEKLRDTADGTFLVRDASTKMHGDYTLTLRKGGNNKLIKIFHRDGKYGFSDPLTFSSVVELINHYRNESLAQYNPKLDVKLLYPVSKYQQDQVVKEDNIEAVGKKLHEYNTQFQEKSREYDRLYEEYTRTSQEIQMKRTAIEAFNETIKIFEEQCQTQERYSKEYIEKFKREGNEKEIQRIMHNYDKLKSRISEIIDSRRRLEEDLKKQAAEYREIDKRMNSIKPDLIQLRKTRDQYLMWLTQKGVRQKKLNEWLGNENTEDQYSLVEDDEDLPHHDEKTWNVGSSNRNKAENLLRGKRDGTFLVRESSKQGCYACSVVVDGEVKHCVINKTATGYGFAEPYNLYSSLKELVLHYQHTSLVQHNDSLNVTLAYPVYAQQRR
# T1 sequence (P28482 whole entry, the tested form may be a part): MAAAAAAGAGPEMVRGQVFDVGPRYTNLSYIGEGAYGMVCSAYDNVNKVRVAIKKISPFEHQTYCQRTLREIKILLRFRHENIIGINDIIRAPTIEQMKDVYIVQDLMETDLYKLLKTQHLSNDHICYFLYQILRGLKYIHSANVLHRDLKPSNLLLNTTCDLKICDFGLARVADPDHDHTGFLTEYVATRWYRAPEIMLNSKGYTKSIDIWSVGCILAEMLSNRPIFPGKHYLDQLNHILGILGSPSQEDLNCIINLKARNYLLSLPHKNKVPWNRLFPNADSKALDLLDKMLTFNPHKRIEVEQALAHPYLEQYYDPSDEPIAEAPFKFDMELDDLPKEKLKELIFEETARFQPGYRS
IC50 ([1]; ERK2 enzyme assay (2)),IC50 (human PI3Kα protein),IC50 [1],SMILES
< 1000 nM,< 1000 nM,,Cn1cc(-c2cnc3ccc(Nc4cc(C5CCOCC5)cnn4)nc3c2)cn1 [Example 0759]
< 1000 nM,1000 to 10000 nM,,CC(C)c1cnnc(Nc2ccc3ncc(N4CCC(F)(F)CC4)cc3n2)c1 [Example 0858]
,< 1000 nM,< 1000 nM,"CC(C)c1cnnc(Nc2ccc3ncc(C4=CCN(S(C)(=O)=O)C4)cc3n2)c1 [Example 0908, N-(5-Isopropylpyridazin-3-yl)-7-(1-(methylsulfonyl)-2,5-dihydro-1H-pyrrol-3-yl)-1,5-naphthyridine-2-amine]"
1000 to 10000 nM,< 1000 nM,,CC(C)c1cnnc(Nc2ccc3ncc(-c4cn(C)nc4-c4ccc(CN(C)C)cc4)cc3n2)c1 [Example 0768]
< 1000 nM,1000 to 10000 nM,,CC(C)c1cnnc(Nc2ccc3ncc(NC4CN(C(=O)OC(C)(C)C)C4)cc3n2)c1 [Example 0891]
< 1000 nM,< 1000 nM,,CCC(CC)c1cnnc(Nc2ccc3ncc(-c4cn(C)nc4-c4ccncc4)cc3n2)c1 [Example 0770]
< 1000 nM,< 1000 nM,,CC(C)c1cnnc(Nc2ccc3ncc(-c4cn(C)nc4NCc4cccnc4)cc3n2)c1 [Example 0833]
< 1000 nM,< 1000 nM,,"Cc1n[nH]cc1-c1cnc2ccc(Nc3cc(C(C)C)cnn3)nc2c1 [Example 0719, N-(5-isopropylpyridazin-3-yl)-7-(3-methyl-1H-pyrazol-4-yl)-1,5-naphthyridine-2-amine]"
< 1000 nM,< 1000 nM,,"CC(C)c1cnnc(Nc2ccc3ncc(/C=C/c4ccncc4)cc3n2)c1 [Example 0652, (E)-N-(5-isopropylpyridazin-3-yl)-7-(2-(pyridin-4-yl)vinyl)-1,5-naphthyridine-2-amine]"
< 1000 nM,< 1000 nM,,"CCn1cc(-c2cnc3ccc(Nc4cc(C(C)C)cnn4)nc3c2)cn1 [Example 0440, 7-(1-Ethyl-1H-pyrazol-4-yl)-N-(5-isopropylpyridazin-3-yl)-1,5-naphthyridine-2-amine]"
< 1000 nM,< 1000 nM,,"CC(C)c1cnnc(Nc2ccc3ncc(-c4cn(C)nc4COC4CN(C)C4)cc3n2)c1 [Example 0823, N-(5-isopropylpyridazin-3-yl)-7-(1-methyl-3-(((1-methylazetidin-3-yl)oxy)methyl)-1H-pyrazol-4-yl)-1,5-naphthyridine-2-amine]"
< 1000 nM,< 1000 nM,,CC(C)c1cnnc(Nc2ccc3ncc(-c4cnn(CCCN5CC(C(=O)O)C5)c4)cc3n2)c1 [Example 0666]
< 1000 nM,1000 to 10000 nM,,COC1(C)CN(c2cnc3ccc(Nc4cc(C(C)C)cnn4)nc3c2)C1 [Example 0859]
< 1000 nM,< 1000 nM,,CC(C)c1cnnc(Nc2ccc3ncc(N4CCN(S(C)(=O)=O)CC4)cc3n2)c1 [Example 0861]
< 1000 nM,< 1000 nM,,CC(C)c1cnnc(Nc2ccc3ncc(-c4cn(C)nc4N4CCOCC4)cc3n2)c1 [Example 0844]
< 1000 nM,< 1000 nM,,Cn1cc(-c2cnc3ccc(Nc4cc(C(C)(C)C)cnn4)nc3c2)cn1 [Example 0526]
< 1000 nM,1000 to 10000 nM,,CC(C)OC1CN(c2cnc3ccc(Nc4cc(C(C)C)cnn4)nc3c2)C1 [Example 0863]
,< 1000 nM,< 1000 nM,CC(C)c1cnnc(Nc2ccc3ncc(-c4cn(C)nc4NC4CCOC4)cc3n2)c1 (centres unmarked) [Example 0940]
< 1000 nM,< 1000 nM,,CC(C)c1cnnc(Nc2ccc3ncc(-c4cn(C)nc4-c4ccnc(OCCN(C)C)c4)cc3n2)c1 [Example 0751]
< 1000 nM,< 1000 nM,,CCC(CC)c1cnnc(Nc2ccc3ncc(-c4cnn(CCOC5CN(C(C)C)C5)c4)cc3n2)c1 [Example 0818]
10000 to 50000 nM,1000 to 10000 nM,,"CC(C)c1cnnc(Nc2ccc3ncc(C(=O)O)cc3n2)c1 [Example 0639, 6-((5-isopropylpyridazin-3-yl)amino)-1,5-naphthyridine-3-carboxylic acid]"
< 1000 nM,1000 to 10000 nM,,"CC(C)c1cnnc(Nc2ccc3ncc(-n4cnc(CO)c4)cc3n2)c1 [Example 0497, (1-(6-((5-isopropylpyridazin-3-yl)amino)-1,5-naphthyridin-3-yl)-1H-imidazol-4-yl)methanol]"
< 1000 nM,< 1000 nM,,"CC(C)c1cnnc(Nc2ccc3ncc(-c4cnn(/C=C(\F)CN5CCCC5)c4)cc3n2)c1 [Example 0726, (Z)-7-(1-(2-fluoro-3-(pyrrolidin-1-yl)-1-propen-1-yl)-1H-pyrazol-4-yl)-N-(5-isopropylpyridazin-3-yl)-1,5-naphthyridine-2-amine]"

IC50 ([1]; ERK2 enzyme assay (2)),IC50 (human PI3Kα protein),IC50 [1],SMILES
< 1000 nM,< 1000 nM,,COCC(=O)N1CCC(Cn2cc(-c3cnc4ccc(Nc5cc(C(C)C)cnn5)nc4c3)cn2)CC1 [Example 0537]
< 1000 nM,1000 to 10000 nM,,"CC(C)c1cnnc(Nc2ccc3ncc(-n4cnc(CCN)c4)cc3n2)c1 [Example 0506, Hydrochloric acid salt of 7-(4-(2-aminoethyl)-1H-imidazol-1-yl)-N-(5-isopropylpyridazin-3-yl)-1,5-naphthyridine-2-amine]"
< 1000 nM,< 1000 nM,,"CC(C)c1cnnc(Nc2ccc3ncc(-c4ccn[nH]4)cc3n2)c1 [Example 0622, N-(5-isopropylpyridazin-3-yl)-7-(1H-pyrazol-5-yl)-1,5-naphthyridine-2-amine]"
< 1000 nM,< 1000 nM,,"Cn1cc(-c2cnc3ccc(Nc4cc(N5CCOCC5)cnn4)nc3c2)cn1 [Example 0554, 7-(1-methyl-1H-pyrazol-4-yl)-N-(5-morpholinopyridazin-3-yl)-1,5-naphthyridine-2-amine]"
< 1000 nM,< 1000 nM,,"CC(C)c1cnnc(Nc2ccc3ncc(-c4cnn(CCCN5CCOCC5C)c4)cc3n2)c1 (centres unmarked) [Example 0607, N-(5-isopropylpyridazin-3-yl)-7-(1-(3-(3-methylmorpholino)propyl)-1H-pyrazol-4-yl)-1,5-naphthyridine-2-amine]"
,< 1000 nM,< 1000 nM,CC(C)c1cnnc(Nc2ccc3ncc(-c4cn(C)nc4N4CC5(COC5)C4)cc3n2)c1 [Example 0934]
< 1000 nM,< 1000 nM,,"Cc1nn(C)cc1-c1cnc2ccc(Nc3cc(C(C)C)cnn3)nc2c1C [Example 0852, 7-(1,3-Dimethyl-1H-pyrazol-4-yl)-N-(5-isopropylpyridazin-3-yl)-8-methyl-1,5-naphthyridine-2-amine]"
< 1000 nM,< 1000 nM,,CC(C)c1cnnc(Nc2ccc3ncc(-c4cnn(CCCN5CCN(c6cccnc6)CC5)c4)cc3n2)c1 [Example 0446]
< 1000 nM,< 1000 nM,,CC(C)c1cnnc(Nc2ccc3ncc(N4CC5(COC5)C4)cc3n2)c1 [Example 0855]
< 1000 nM,< 1000 nM,,CCCCOC1CN(CCCn2cc(-c3cnc4ccc(Nc5cc(C(C)C)cnn5)nc4c3)cn2)C1 [Example 0707]
< 1000 nM,< 1000 nM,,c1nnc(Nc2ccc3ncc(-c4cnn(CCOC5CNC5)c4)cc3n2)cc1CC1CCCCC1 [Example 0817]
< 1000 nM,< 1000 nM,,CC(C)c1cnnc(Nc2ccc3ncc(-c4cnn(CC(O)CN5CCOCC5)c4)cc3n2)c1 (centres unmarked) [Example 0729]
< 1000 nM,< 1000 nM,,COc1cccc(-c2nn(C)cc2-c2cnc3ccc(Nc4cc(C(C)C)cnn4)nc3c2)c1 [Example 0452]
< 1000 nM,< 1000 nM,,CC(C)c1cnnc(Nc2ccc3ncc(-c4cn(C)nc4Nc4ccncc4)cc3n2)c1 [Example 0798]
1000 to 10000 nM,1000 to 10000 nM,,CC(C)c1cnnc(Nc2ccc3ncc(C(=O)NCCCO)cc3n2)c1 [Example 0663]
1000 to 10000 nM,1000 to 10000 nM,,CC(C)c1cnnc(Nc2ccc3ncc(N4CC(Oc5ccccc5)C4)cc3n2)c1 [Example 0860]
1000 to 10000 nM,< 1000 nM,,"CC(=O)Nc1cnc2ccc(Nc3cc(C(C)C)cnn3)nc2c1 [Example 0625, N-(6-((5-isopropylpyridazin-3-yl)amino)-1,5-naphthyridin-3-yl)acetamide]"
< 1000 nM,< 1000 nM,,CCN(CC)C(=O)N1CCC(Cn2cc(-c3cnc4ccc(Nc5cc(C(C)C)cnn5)nc4c3)cn2)CC1 [Example 0531]
< 1000 nM,< 1000 nM,,CCN(CCO)c1cnnc(Nc2ccc3ncc(-c4cnn(C)c4)cc3n2)c1 [Example 0525]
< 1000 nM,< 1000 nM,,CC(C)c1cnnc(Nc2ccc3ncc(-c4cn(C)nc4COc4ccccc4)cc3n2)c1 [Example 0803]
< 1000 nM,< 1000 nM,,CC(C)c1cnnc(Nc2ccc3ncc(-c4cnn(CCCN5CC[C@H](F)C5)c4)cc3n2)c1 [Example 0428]
< 1000 nM,< 1000 nM,,"COc1cccc(Cn2cc(-c3cnc4ccc(Nc5cc(C(C)C)cnn5)nc4c3)cn2)n1 [Example 0412, N-(5-isopropylpyridazin-3-yl)-7-(1-((6-methoxypyridin-2-yl)methyl)-1H-pyrazol-4-yl)-1,5-naphthyridine-2-amine]"
< 1000 nM,< 1000 nM,,"c1cncc(Cn2cc(-c3cnc4ccc(Nc5cc(C6CC6)cnn5)nc4c3)cn2)c1 [Example 0463, N-(5-cyclopropylpyridazin-3-yl)-7-(1-(pyridin-3-ylmethyl)-1H-pyrazol-4-yl)-1,5-naphthyridine-2-amine]"

# — patent US9783536B2, “Nitrogen-containing heterocyclic compound or salt thereof” (FUJIFILM Corporation, priority 2013, dated 2017)
